Test results: patent US9040458B2, “Safening composition of 6-(trisubstituded phenyl)-4-amino-2-pyridinecarboxylate herbicides and cloquintocet-mexyl for cereal crops” (Dow AgroSciences LLC, priority 2008, dated 2015)

What was measured:
PAPRH (corn poppy) = assay: Postemergence herbicidal activity, greenhouse, visual injury; format: in vivo, Papaver rhoeas; conditions: 20-22 d
Description: (§1) Seeds of the desired test plant species were planted in Sun Gro MetroMix® 306 planting mixture, which typically has a pH of 6.0 to 6.8 and an organic matter content of about 30 percent, in plastic pots with a surface area of 103.2 square centimeters (cm^2). When required to ensure good germination and healthy plants, a fungicide treatment and/or other chemical or physical treatment was applied. The plants were grown for 7-36 days (d) in a greenhouse with an approximate […] photoperiod which was maintained at about 18° C. during the day and 17° C. during the night. Nutrients and water were added on a regular basis and supplemental lighting was provided with overhead metal halide 1000-Watt lamps as necessary. The plants were employed for testing when they reached the second or third true leaf stage.
(§2) Weighed amounts of esters (methyl) or salts (TEA [triethylammonium], potassium [K]) of 4-amino-3-chloro-6-(4-chloro-2-fluoro-3-methoxyphenyl)pyridine-2-carboxylic acid (Compound 1) were dissolved in a volume of 97:3 volume/volume (v/v) acetone/dimethylsulfoxide (DMSO) to obtain stock solutions. […] The concentrated stock solutions were diluted with an aqueous mixture of 1.5% v/v of Agri-dex crop oil concentrate to provide the appropriate application rates. Compound requirements are based upon a 12 mL application volume at a rate of 187 liters per hectare (L/ha). Stocks solutions of the safeners were prepared following the same procedure. Spray solutions of the safeners and experimental compound mixtures were prepared by adding the appropriate volume of both stock solutions to the appropriate amount of dilution solution to form a 12 mL spray solution with active ingredients in two-way combinations. Formulated compounds were applied to the plant material with an overhead Mandel track sprayer equipped with 8002E nozzles calibrated to deliver 187 L/ha over an application area of 0.503 square meters (m^2) at a spray height of 18 inches (43 centimeters (cm)) above average plant canopy. Control plants were sprayed in the same manner with the solvent blank.
(§3) The treated plants and control plants were placed in a greenhouse as described above and watered by sub-irrigation to prevent wash-off of the test compounds. After 20-22 d, the condition of the test plants as compared with that of the control plants was determined visually and scored on a scale of 0 to 100 percent where 0 corresponds to no injury and 100 corresponds to complete kill.
(§4) Colby's equation was used to determine the herbicidal effects expected from the mixtures (Colby, S. R., Calculation of the synergistic and antagonistic response of herbicide combinations. Weeds 1967, 15, 20-22.).
(§5) The following equation was used to calculate the expected activity of mixtures containing two active ingredients, A and B: Expected=A+B−(A×B/100)
(§6) A=observed efficacy of active ingredient A at the same concentration as used in the mixture.
(§7) B=observed efficacy of active ingredient B at the same concentration as used in the mixture.

[1] = system: TRZAS = Triticum aestivum (spring wheat); assay: Postemergence herbicidal safening, greenhouse, visual injury; format: in vivo; conditions: 20-22 d
Description: as §1, §2, §3, §4, §5, §6, §7

[2] = system: HORVS = Hordeum vulgare (spring barley); assay: as above; format: in vivo; conditions: 20-22 d
Description: as §1, §2, §3, §4, §5, §6, §7

[3] = system: LAMPU (purple deadnettle); assay: Postemergence herbicidal activity, greenhouse, visual injury; format: in vivo, Lamium purpureum; conditions: 20-22 d
Description: as §1, §2, §3, §4, §5, §6, §7

[4] = system: TRZAW = Triticum aestivum (winter wheat); assay: Postemergence herbicidal safening, greenhouse, visual injury; format: in vivo; conditions: applied alone at 140 g/ha; 20-22 d; listed as 1 Methyl Ester
Description: as §1, §2, §3, §4, §5, §6, §7

HORVW (winter barley) = assay: as above; format: in vivo, Hordeum vulgare; conditions: applied alone at 140 g/ha; 20-22 d; listed as 1 Methyl Ester
Description: as §1, with “stage. […]” for “stage.”
as §3, with “kill. […]” for “kill.”

[5] = system: MATCH = Matricaria chamomila (scented mayweed); assay: Postemergence herbicidal activity, greenhouse, visual injury; format: in vivo; conditions: applied alone at 140 g/ha; 20-22 d; listed as 1 Methyl Ester
Description: as §1, §2, §3, §4, §5, §6, §7

[6] = system: GALAP = Galium aparine (cleavers); assay: as above; format: in vivo; conditions: applied alone at 140 g/ha; 20-22 d
Description: as §1, §2, §3, §4, §5, §6, §7

[7] = system: VERPE = Veronica persica (bird's-eye speedwell); assay: as above; format: in vivo; conditions: applied alone at 140 g/ha; 20-22 d; listed as 1 Methyl Ester
Description: as §1, §2, §3, §4, §5, §6, §7

[8] = system: KCHSC = Kochia scoparia (kochia); assay: as above; format: in vivo; conditions: applied alone at 140 g/ha; 20-22 d; listed as 1 Methyl Ester
Description: as §1, §2, §3, §4, §5, §6, §7

[9] = system: SASKR = Salsola iberica (Russian thistle); assay: as above; format: in vivo; conditions: applied alone at 140 g/ha; 20-22 d; listed as 1 Methyl Ester
Description: as §1, §2, §3, §4, §5, §6, §7

[10] = system: VIOTR = Viola tricolor (wild pansy); assay: as above; format: in vivo; conditions: applied alone at 140 g/ha; 20-22 d; listed as 1 Methyl Ester
Description: as §1, §2, §3, §4, §5, §6, §7

[11] = applied alone at 8.75 g/ha, listed as 1 Methyl Ester
[12] = applied alone at 35 g/ha, listed as 1 Methyl Ester
[13] = applied alone at 35 g/ha, listed as (I) Methyl ester
[14] = applied alone at 140 g/ha, listed as 1 Methyl Ester

## O=C(O)COc1ccc(Cl)c2cccnc12 [Cloquintocet-acid, [(5-chloro-8-quinolinyl)oxy]acetic acid]
PAPRH (corn poppy); applied alone at 0.55 g/ha
  PAPRH Ob (observed injury): 0%
PAPRH (corn poppy); applied alone at 1.1 g/ha
  PAPRH Ob (observed injury): 0%
PAPRH (corn poppy); applied alone at 2.2 g/ha
  PAPRH Ob (observed injury): 0%
PAPRH (corn poppy); applied alone at 4.4 g/ha
  PAPRH Ob (observed injury): 0%
[1]; applied alone at 0.55 g/ha
  TRZAS Ob (observed injury): 0%
[1]; applied alone at 1.1 g/ha
  TRZAS Ob (observed injury): 0%
[1]; applied alone at 2.2 g/ha
  TRZAS Ob (observed injury): 0%
[1]; applied alone at 4.4 g/ha
  TRZAS Ob (observed injury): 0%
[2]; applied alone at 0.55 g/ha
  HORVS Ob (observed injury): 0%
[2]; applied alone at 1.1 g/ha
  HORVS Ob (observed injury): 0%
[2]; applied alone at 2.2 g/ha
  HORVS Ob (observed injury): 0%
[2]; applied alone at 4.4 g/ha
  HORVS Ob (observed injury): 0%
[3]; applied alone at 0.55 g/ha
  LAMPU Ob (observed injury): 0%
[3]; applied alone at 1.1 g/ha
  LAMPU Ob (observed injury): 0%
[3]; applied alone at 2.2 g/ha
  LAMPU Ob (observed injury): 0%
[3]; applied alone at 4.4 g/ha
  LAMPU Ob (observed injury): 0%

## COc1c(Cl)ccc(-c2cc(N)c(Cl)c(C(=O)O)n2)c1F [Compound 1 Methyl Ester, 4-amino-3-chloro-6-(4-chloro-2-fluoro-3-methoxyphenyl)pyridine-2-carboxylic acid]
PAPRH (corn poppy); applied alone at 35 g/ha
  PAPRH Ob (observed injury): 97%
[1]; [11]
  TRZAS Ob (observed injury): 13%
[1]; [12]
  TRZAS Ob (observed injury): 43%
[1]; [13]
  TRZAS Ob (observed injury): 45%
[1]; applied alone at 70 g/ha, listed as 1 Methyl Ester
  TRZAS Ob (observed injury): 25%
[1]; [14]
  TRZAS Ob (observed injury): 37%
[2]; [11]
  HORVS Ob (observed injury): 22%
[2]; [12]
  HORVS Ob (observed injury): 38%
[2]; [13]
  HORVS Ob (observed injury): 43%
[2]; [14]
  HORVS Ob (observed injury): 42%
[4]
  TRZAW Ob (observed injury): 32%
HORVW (winter barley)
  HORVW Ob (observed injury): 42%
[3]; applied alone at 35 g/ha
  LAMPU Ob (observed injury): 100%
[5]
  MATCH Ob (observed injury): 82%
[6]
  GALAP Ob (observed injury): 100%
[7]
  VERPE Ob (observed injury): 91%
[8]
  KCHSC Ob (observed injury): 100%
[9]
  SASKR Ob (observed injury): 91%
[10]
  VIOTR Ob (observed injury): 67%
